Data published in the OPERA property sets (Mansouri et al. 2018).

| SMILES | logP |
| --- | --- |
| Cc1cccc([N+](=O)[O-])c1C(=O)NC(=O)Nc1ccc(Cl)cc1 | 3.75 |
| CCNC(=O)NC(=O)c1ccccc1 | 1.92 |
| CC(=O)NC(=O)Nc1ccccc1 | 1.6 |
| O=C(NC(=O)c1ccccc1)Nc1ccccc1 | 3.39 |
| CNC(=O)NC(C)=O | -0.7 |
| O=C(NC(=O)c1c(F)cccc1F)Nc1ccc(F)cc1 | 3.2 |
| CNC(N)=O | -1.4 |
| O=C(NC(=O)c1c(F)cccc1F)Nc1ccc(Cl)cc1 | 3.88 |
| COc1ccccc1C(=O)NC(=O)Nc1ccc(Cl)cc1 | 4.35 |
| CCNC(=O)NC(C)=O | -0.01 |
| CNC(=O)NC(=O)c1ccccc1 | 1.27 |
